Patent US9938562B2, “Naphthalene derived chromogenic enzyme substrates” (Glycosynth Limited, priority 2013, dated 2018)

Columns and labels:
[1] = system: Burkholderia cepacia NCTC 10931; assay: Agar plate multi-point inoculation, colour; assay type: cell-based; details: Columbia agar, FAC 500 mg/L, substrate 300 mg/L, 37° C. 18 h in air
[2] = system: Candida albicans ATCC 90028; assay type: cell-based; details: Columbia agar, FAC 500 mg/L, substrate 300 mg/L, 37° C. 18 h in air
[3] = system: Yersinia enterocolitica NCTC 11176; assay: Agar plate multi-point inoculation, colour; assay type: cell-based; details: Columbia agar, FAC 500 mg/L, substrate 300 mg/L, 37° C. 18 h in air
[4] = system: Salmonella typhimurium NCTC 74; assay: Agar plate multi-point inoculation, colour; assay type: cell-based; details: Columbia agar, FAC 500 mg/L, substrate 300 mg/L, 37° C. 18 h in air
[5] = system: Bacillus subtilis NCTC 9372; assay: Agar plate multi-point inoculation, colour; assay type: cell-based; details: Columbia agar, FAC 500 mg/L, substrate 300 mg/L, 37° C. 18 h in air
[6] = system: Escherichia coli NCTC 10418; assay: Agar plate multi-point inoculation, colour; assay type: cell-based; details: Columbia agar, FAC 500 mg/L, substrate 300 mg/L, 37° C. 18 h in air
[7] = system: Staphylococcus aureus NCTC 6571; assay: Agar plate multi-point inoculation, colour; assay type: cell-based; details: Columbia agar, FAC 500 mg/L, substrate 300 mg/L, 37° C. 18 h in air
[8] = system: Enterobacter cloacae NCTC 11936; assay: Agar plate multi-point inoculation, colour; assay type: cell-based; details: Columbia agar, FAC 500 mg/L, substrate 300 mg/L, 37° C. 18 h in air
[9] = system: Candida glabrata NCPF 3943; assay: Agar plate multi-point inoculation, colour; assay type: cell-based; details: Columbia agar, FAC 500 mg/L, substrate 300 mg/L, 37° C. 18 h in air
[10] = system: Klebsiella pneumoniae NCTC 9528; assay: Agar plate multi-point inoculation, colour; assay type: cell-based; details: Columbia agar, FAC 500 mg/L, substrate 300 mg/L, 37° C. 18 h in air
[11] = system: Enterococcus faecium NCTC 7171; assay: Agar plate multi-point inoculation, colour; assay type: cell-based; details: Columbia agar, FAC 500 mg/L, substrate 300 mg/L, 37° C. 18 h in air
range of microorganisms = assay: Agar plate evaluation with a range of microorganisms (hue, diffusion, background); assay type: cell-based
[12] = system: Staphylococcus aureus (MRSA) NCTC 11939; assay: Agar plate multi-point inoculation, colour; assay type: cell-based; details: Columbia agar, FAC 500 mg/L, substrate 300 mg/L, 37° C. 18 h in air
[13] = system: Pseudomonas aeruginosa NCTC 10662; assay: Agar plate multi-point inoculation, colour; assay type: cell-based; details: Columbia agar, FAC 500 mg/L, substrate 300 mg/L, 37° C. 18 h in air
[14] = system: Staphylococcus epidermidis NCTC 11047; assay: Agar plate multi-point inoculation, colour; assay type: cell-based; details: Columbia agar, FAC 500 mg/L, substrate 300 mg/L, 37° C. 18 h in air
[15] = system: Listeria monocytogenes NCTC 11994; assay: Agar plate multi-point inoculation, colour; assay type: cell-based; details: Columbia agar, FAC 500 mg/L, substrate 300 mg/L, 37° C. 18 h in air
[16] = system: Enterococcus faecalis NCTC 775; assay: Agar plate multi-point inoculation, colour; assay type: cell-based; details: Columbia agar, FAC 500 mg/L, substrate 300 mg/L, 37° C. 18 h in air
[17] = system: Serratia marcescens NCTC 10211; assay: Agar plate multi-point inoculation, colour; assay type: cell-based; details: Columbia agar, FAC 500 mg/L, substrate 300 mg/L, 37° C. 18 h in air
[18] = system: Gram-positive or Gram-negative strains; assay: Toxicity / growth of microorganisms on substrate agar plates; assay type: cell-based; details: substrate 300 mg/L
Experimental: This compound was tested on agar plates by multi-point inoculation. The plates were made from Columbia agar (Oxoid, Basingstoke, UK) (100 ml) supplemented with ferric ammonium citrate (FAC) (50 mg). After the agar had been autoclaved (121° C.) and cooled to 50° C., a filter sterilized solution of the substrate (8) (30 mg) dissolved in N-methylpyrrolidone (NMP) (200 μL) was added, thus giving a substrate concentration of 300 mg/L. After pouring, the plates were inoculated with a range of microorganisms and incubated at 37° C. for 18 h in air (Table 1).
In the publication of Zincke and Fries, the authors reported that treatment of 1,4,6,7-tetrabromo-DHN (20) with tin (II) chloride led to the removal of the bromines in the 1 and 4 positions. Their work was repeated and the expected 6,7-dibromo-DHN (21) was obtained smoothly and in good yield (68%). 6,7-Dibromo-DHN (21) is isomeric with the 1,4-dibromo compound which had proven unsuccessful as an aglycone for the detection of microorganisms. Notwithstanding this latter fact, we proceeded to evaluate the properties of 6,7-dibromo-DHN […] as an aglycone for artificial chromogenic enzyme substrates. […]

[19] = system: Steptococcus pyogenes NCTC 8306; assay: Agar plate multi-point inoculation, colour; assay type: cell-based; details: Columbia agar, FAC 500 mg/L, substrate 300 mg/L, 37° C. 18 h in air
[20] = system: Acinetobacter baumannii NCTC 19606; assay: Agar plate multi-point inoculation, colour; assay type: cell-based; details: Columbia agar, FAC 500 mg/L, substrate 300 mg/L, 37° C. 18 h in air
[21] = system: Providencia rettgeri NCTC 7475; assay: Agar plate multi-point inoculation, colour; assay type: cell-based; details: Columbia agar, FAC 500 mg/L, substrate 300 mg/L, 37° C. 18 h in air

With `OCC1OC(Oc2cc3ccccc3cc2O)C(O)C(O)C1O` [Compound 8, DHN-β-D-galactopyranoside] the Colour [1] was “−”, the Colour [2] was “−” and the Colour [3] was “−”. The Colour [4] was “−”, the Colour [5] was “−” and the melting point was > 230 °C (dec.). The Colour [6] was “++”, the Colour [7] was “−” and the Colour [8] was “++”. The Colour [9] was “−”, the Colour [10] was “++” and the Colour [11] was “Tr”. The “colour (hue) after hydrolysis” value (range of microorganisms; agar plates with FAC) was “strong purple-maroon colour”, the “formation of coloured chelate” value (range of microorganisms; plates incubated under anaerobic conditions) was “still formed” and the “sensitivity after autoclaving substrate in agar” value (range of microorganisms; substrate added prior to autoclaving, 121° C. for 20 minutes) was “no decrease in sensitivity”. For the same compound, the Colour [12] was “−”, the Colour [13] was “−” and the Colour [14] was “−”. For the same compound, the Colour [15] was “−”, the Colour [16] was “−” and the Colour [17] was “+”. For the same compound, the “toxicity to strains tested” value [18] was “no obvious toxicity”, the Colour [19] was “−” and the Colour [20] was “−”. The Colour [21] was “−”.
